Experimental data taken from patent publication US6919424B2, “Binding peptides for carcinoembryonic antigen (CEA)” (Dyax Corp., priority 2000, dated 2005).
Bridge positions count the residues as written; N and C are the ends. Ends that are not written are not given here. Peptide text beside a SMILES is read from it. * marks the point of attachment. 5FAM = O=C1OC2(c3ccc(O)cc3Oc3cc(O)ccc32)c2ccc(C(=O)*)cc21

What was measured:
[1] = target: T1, NA3 (Homo sapiens, UniProt P06731); assay: Phage ELISA with varying amounts of NA3 per well (FIGS. 2, 4, 5); assay type: binding; conditions: FIG. 2; 100, 50, 10, 5, 1, 0 ng per well
T1 construct: H6NA3, consisting of a hexahistidine leader and the N and A3 domains of CEA, was used
T1 sequence (P06731 35-144 limits assumed): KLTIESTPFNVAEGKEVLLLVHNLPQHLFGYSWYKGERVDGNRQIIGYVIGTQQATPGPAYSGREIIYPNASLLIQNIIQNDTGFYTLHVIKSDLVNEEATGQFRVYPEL
T1 sequence (P06731 501-588 limits assumed): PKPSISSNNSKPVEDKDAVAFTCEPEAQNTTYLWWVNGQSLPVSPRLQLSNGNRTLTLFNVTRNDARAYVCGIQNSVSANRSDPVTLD
Description: The first bar for each sample represents wells each having 100 ng CEA. Successive bars represent 50 ng, 10 ng, 5 ng, 1 ng, and 0 ng CEA per well.
The first bar for each sample represents wells each having 30 ng NA3. Successive bars represent 10 ng, 3 ng, and 0 ng NA3 per well.
Several Isolates gave especially strong ELISA signals and these were tested further.
Several Isolates gave especially strong ELISA signals and these were tested further. […] Isolate 304A-12-H12 (designated DX306) was assayed in parallel as a basis for comparison.

[2] = target: T2, CEA (Homo sapiens, UniProt P06731); assay: Fluorescence anisotropy direct binding to CEA; conditions: for binding to CEA (in words): compared with binding to NA3
T2 construct: purchased
T2 sequence (P06731 35-676): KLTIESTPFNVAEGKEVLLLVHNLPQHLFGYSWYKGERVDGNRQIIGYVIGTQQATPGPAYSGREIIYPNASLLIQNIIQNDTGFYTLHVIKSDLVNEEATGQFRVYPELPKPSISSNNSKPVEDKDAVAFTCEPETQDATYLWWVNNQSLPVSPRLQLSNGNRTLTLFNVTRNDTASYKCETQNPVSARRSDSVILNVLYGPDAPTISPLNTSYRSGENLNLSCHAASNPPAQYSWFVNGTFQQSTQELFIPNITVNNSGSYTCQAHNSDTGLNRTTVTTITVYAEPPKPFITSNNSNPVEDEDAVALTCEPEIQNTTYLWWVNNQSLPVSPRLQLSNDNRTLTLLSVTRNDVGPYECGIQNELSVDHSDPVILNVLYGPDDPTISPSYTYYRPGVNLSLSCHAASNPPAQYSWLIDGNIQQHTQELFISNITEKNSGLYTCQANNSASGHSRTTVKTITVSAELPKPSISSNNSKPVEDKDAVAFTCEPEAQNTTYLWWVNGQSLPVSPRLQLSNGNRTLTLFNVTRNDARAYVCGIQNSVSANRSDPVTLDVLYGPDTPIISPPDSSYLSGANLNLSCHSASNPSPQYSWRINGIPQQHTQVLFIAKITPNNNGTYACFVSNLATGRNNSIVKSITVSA
Description: Dissociation constants were determined using fluorescence anisotropy, through direct binding measurements to either NA-3 or CEA in PBS with 0.01% TWEEN 20. In direct binding assays, the concentration of the fluorescein-labeled peptide is held constant and the concentration of NA3 is varied. In the competition experiment, the concentration of the fluorescein-labeled peptide and the NA3 target are held constant and the concentration of competitor peptide (from Isolate 12-H12) is varied. The change in anisotropy is fit to the appropriate equation via nonlinear regression to obtain the apparent Kd. Isolate 304A-12-H12, previously isolated from Lib2 and assayed for binding, was analyzed in parallel as a control. Replicate analyses were run for certain binders and are reported to confirm accuracy and precision of measurements. KD standard error values are calculated from the nonlinear regression (SIGMAPLOT, SPSS Science, Chicago, Ill.).

[3] = target: T3, H6NA3 (Homo sapiens, UniProt P06731); assay: Fluorescence anisotropy direct binding to H6NA3 / NA3
T3 construct: H6NA3, consisting of a hexahistidine leader and the N and A3 domains of CEA, was used
T3 sequence (P06731 35-144 limits assumed): T1 sequence (P06731 35-144 limits assumed)
T3 sequence (P06731 501-588 limits assumed): T1 sequence (P06731 501-588 limits assumed)
Description: Each peptide was also provided with a C-terminal amide-functional linker useful for immobilizing peptides to various chromatographic substrates: -Ala18-Pro19-Gly20-Gly-Glu-Gly-Gly-Gly-Ser-Lys-CONH2 (SEQ ID NO:28). […] Aliquots of each peptide were fluorescently labeled using NHS-fluorescein reacted with the ε-amino side group of the C-terminal lysine.
Dissociation constants were determined using fluorescence anisotropy, through direct binding measurements and competition experiments. In direct binding assays, the concentration of the fluorescein-labeled peptide is held constant and the concentration of H6NA3 is varied. In the competition experiment, the concentration of the fluorescein-labeled peptide and the H6NA3 target are held constant and the concentration of a competitor (cT84.66, unlabeled) is varied. The change in anisotropy is fit to the appropriate equation via nonlinear regression to obtain the apparent Kd.
Aliquots of each peptide were fluorescently labeled using NHS-fluorescein reacted with the ε-amino side group of the C-terminal lysine.
Dissociation constants were determined using fluorescence anisotropy, through direct binding measurements (see Example 6).
Peptides including the binding domain of the CEA binder Isolates were synthesized by solid-phase synthesis. Each peptide was also provided with a C-terminal amide-functional linker useful for immobilizing peptides to various chromatographic substrates: -Ala18-Pro19-Gly20-Gly-Glu-Gly-Gly-Gly-Ser-Lys-CONH2 (SEQ ID NO:28). […] Aliquots of each peptide were fluorescently labeled using NHS-fluorescein reacted with the ε-amino side group of the C-terminal lysine.
Dissociation constants were determined using fluorescence anisotropy, through direct binding measurements to either NA-3 or CEA in PBS with 0.01% TWEEN 20. […] Isolate 304A-12-H12, previously isolated from Lib2 and assayed for binding, was analyzed in parallel as a control. […] KD standard error values are calculated from the nonlinear regression (SIGMAPLOT, SPSS Science, Chicago, Ill.).

Compound	phage ELISA binding profile to varying amounts of NA3 [1]	binding to CEA (in words) [2]	further results
DWICNLFKNQWFCGPL (CEA binding polypeptide) [Isolate 304A-15-E04]	at least as good as G08 and A07	–	–
CC[C@H](C)[C@H](NC(=O)[C@H](CC(N)=O)NC(=O)[C@@H]1CSSC[C@H](NC(=O)[C@@H](NC(=O)[C@H](Cc2c[nH]c3ccccc23)NC(=O)[C@H](CC(=O)O)NC(=O)[C@@H](N)CO)C(C)C)C(=O)N[C@@H](CCC(=O)O)C(=O)N[C@@H](Cc2ccccc2)C(=O)N[C@@H](Cc2ccccc2)C(=O)N[C@@H](CCCCN)C(=O)N[C@@H](CC(=O)O)C(=O)N[C@@H](CCC(N)=O)C(=O)N[C@@H](Cc2c[nH]c3ccccc23)C(=O)N[C@@H](Cc2ccccc2)C(=O)N1)C(=O)N[C@@H](CC(C)C)C(=O)N[C@@H](C)C(=O)N1CCC[C@H]1C(=O)NCC(=O)NCC(=O)N[C@@H](CCC(=O)O)C(=O)NCC(=O)NCC(=O)NCC(=O)N[C@@H](CO)C(=O)N[C@@H](CCCCNC(=O)c1ccc2c(c1)C(=O)OC21c2ccc(O)cc2Oc2cc(O)ccc21)C(N)=O [Isolate 315A-18-E02] (H-SDWVCEFFKDQWFCNILAPGGEGGGSK(5FAM)-NH2; disulfide 5-14; N-terminus assumed)	–	effectively bound CEA, but not as strongly as they bound NA3	–
CC(C)C[C@H](NC(=O)[C@H](CO)NC(=O)[C@H](CC(N)=O)NC(=O)[C@@H]1CSSC[C@H](NC(=O)[C@@H](NC(=O)[C@H](Cc2c[nH]c3ccccc23)NC(=O)[C@H](CC(=O)O)NC(=O)[C@@H](N)CO)C(C)C)C(=O)N[C@@H](CCC(=O)O)C(=O)N[C@@H](Cc2c[nH]c3ccccc23)C(=O)N[C@@H](CC(C)C)C(=O)N[C@@H](CCCCN)C(=O)N2CCC[C@H]2C(=O)N[C@@H](CCC(N)=O)C(=O)N[C@@H](Cc2c[nH]c3ccccc23)C(=O)N[C@@H](Cc2ccc(O)cc2)C(=O)N1)C(=O)N[C@@H](C)C(=O)N1CCC[C@H]1C(=O)NCC(=O)NCC(=O)N[C@@H](CCC(=O)O)C(=O)NCC(=O)NCC(=O)NCC(=O)N[C@@H](CO)C(=O)N[C@@H](CCCCNC(=O)c1ccc2c(c1)C(=O)OC21c2ccc(O)cc2Oc2cc(O)ccc21)C(N)=O [Isolate 315A-17-B12] (H-SDWVCEWLKPQWYCNSLAPGGEGGGSK(5FAM)-NH2; disulfide 5-14; N-terminus assumed)	–	did not appear to bind CEA	CEA KD (μM) direct binding ([2]; Table 10, commercial CEA, PBS with 0.01% TWEEN 20): (no binding)
NWVCNLFKNQWFCNSY (cysteine pairing not given here) [Isolate G08]	drops off very quickly as the amount of NA3 drops below 50 ng per well	–	–
DWVCNLFKNQWFCDVP (CEA binding polypeptide) [Isolate 304A-14-B02]	at least as good as G08 and A07	–	–
CC[C@H](C)[C@@H]1NC(=O)[C@H](Cc2ccccc2)NC(=O)[C@H](CCC(=O)O)NC(=O)[C@@H](NC(=O)[C@@H](NC(=O)[C@H](Cc2c[nH]c3ccccc23)NC(=O)[C@H](CC(=O)O)NC(=O)[C@@H](N)CO)C(C)C)CSSC[C@@H](C(=O)N[C@@H](CC(N)=O)C(=O)N[C@H](C(=O)N[C@@H](CC(C)C)C(=O)N[C@@H](C)C(=O)N2CCC[C@H]2C(=O)NCC(=O)NCC(=O)N[C@@H](CCC(=O)O)C(=O)NCC(=O)NCC(=O)NCC(=O)N[C@@H](CO)C(=O)N[C@@H](CCCCNC(=O)c2ccc3c(c2)C(=O)OC32c3ccc(O)cc3Oc3cc(O)ccc32)C(N)=O)C(C)C)NC(=O)[C@H](Cc2ccccc2)NC(=O)[C@H](Cc2c[nH]c3ccccc23)NC(=O)[C@H](CCC(N)=O)NC(=O)[C@H](CO)NC(=O)[C@H](CCCCN)NC1=O [Isolate 315A-17-G08] (H-SDWVCEFIKSQWFCNVLAPGGEGGGSK(5FAM)-NH2; disulfide 5-14; N-terminus assumed)	–	effectively bound CEA, but not as strongly as they bound NA3	–
DWVCENKKDQWTCNLL (cysteine pairing not given here) [Isolate A07]	drops off very quickly as the amount of NA3 drops below 50 ng per well	–	–
CC(C)C[C@H](NC(=O)[C@@H](NC(=O)[C@H](CC(=O)O)NC(=O)[C@@H]1CSSC[C@H](NC(=O)[C@@H](NC(=O)[C@H](Cc2c[nH]c3ccccc23)NC(=O)[C@H](CC(=O)O)NC(=O)[C@@H](N)CO)C(C)C)C(=O)N[C@@H](CCC(=O)O)C(=O)N[C@@H](Cc2ccc(O)cc2)C(=O)N[C@@H](Cc2ccccc2)C(=O)N[C@@H](CCCCN)C(=O)N[C@@H](CC(N)=O)C(=O)N[C@@H](CCC(N)=O)C(=O)N[C@@H](Cc2c[nH]c3ccccc23)C(=O)N[C@@H](Cc2ccccc2)C(=O)N1)[C@@H](C)O)C(=O)N[C@@H](C)C(=O)N1CCC[C@H]1C(=O)NCC(=O)NCC(=O)N[C@@H](CCC(=O)O)C(=O)NCC(=O)NCC(=O)NCC(=O)N[C@@H](CO)C(=O)N[C@@H](CCCCNC(=O)c1ccc2c(c1)C(=O)OC21c2ccc(O)cc2Oc2cc(O)ccc21)C(N)=O [Hybrid H12/A12, DWVCEYFKNQWFCDTL]	–	–	CEA binding characteristics compared with other isolates ([3]; direct binding KD, Table 7): comparable to the Isolates obtained from the initial library screen
CC(C)C[C@@H]1NC(=O)[C@H](CC(N)=O)NC(=O)[C@@H](NC(=O)[C@@H](NC(=O)[C@H](Cc2c[nH]c3ccccc23)NC(=O)[C@H](CC(=O)O)NC(=O)[C@@H](N)CO)C(C)C)CSSC[C@@H](C(=O)N[C@@H](CC(=O)O)C(=O)N[C@H](C(=O)N[C@@H](CC(C)C)C(=O)N[C@@H](C)C(=O)N2CCC[C@H]2C(=O)NCC(=O)NCC(=O)N[C@@H](CCC(=O)O)C(=O)NCC(=O)NCC(=O)NCC(=O)N[C@@H](CO)C(=O)N[C@@H](CCCCNC(=O)c2ccc3c(c2)C(=O)OC32c3ccc(O)cc3Oc3cc(O)ccc32)C(N)=O)[C@@H](C)O)NC(=O)[C@H](Cc2ccccc2)NC(=O)[C@H](Cc2c[nH]c3ccccc23)NC(=O)[C@H](CCC(N)=O)NC(=O)[C@H](CC(N)=O)NC(=O)[C@H](CCCCN)NC(=O)[C@H](Cc2ccccc2)NC1=O [Isolate 304A-14-A12, DWVCNLFKNQWFCDTL]	do not drop off so quickly	–	increase in affinity compared to the Isolate G08 peptide ([3]; from KD of Table 7 versus Table 3): several fold increase in affinity
